Reference: US7737166B2, “Antifungal bicyclic hetero ring compounds” (Daiichi Sankyo Company, Limited, priority 2005, dated 2010)
Converted amounts (≈) assume the structure as drawn.

How the values were obtained:
Experiment in all cases: Antifungal activity (GI80), growth inhibition in YPD20 medium by absorbance at 600 nm
Assay type in all cases: cell-based
C. glabrata ATCC48435 = details: 37° C., absorbance 600 nm; for IC80: Nakaseomyces glabratus, ATCC48435, minimum concentration for at least 80% cell growth inhibition, read-out: GI80 (μg/ml) C. glabrata ATCC48435; for GI80 (μg/ml) C. glabrata ATCC48435: minimum concentration for at least 80% cell growth inhibition
Protocol: (§1) The antifungal activity of the compounds of the invention was determined according to the method mentioned below.
(§2) An YPD20 medium (1% yeast extract, 2% peptone, 20% glucose) was used,
(§3) (2) Preparation of Cell Liquid for Inoculation:
(§4) Cells incubated overnight with Sabouraud dextrose agar at 30° C. were suspended in 0.1% Tween 80-added saline, and then added to a concentrated medium (1.33% yeast extract, 2.67% peptone, 13.33% glucose) so that the final cell concentration could be 5×10^3 cells/ml, thereby preparing a cell liquid for inoculation.
(§5) (3) Production of Chemical Dilution Plate:
(§6) A metered sample was dissolved in dimethyl sulfoxide, and a 2-fold dilution series was prepared using dimethyl sulfoxide. A chemical dilution of 2 μl each was added to a flat-bottom 96-well plate with 40% glucose (48 μl) put in each well, thereby producing a chemical dilution plate.
(§7) (4) Inoculation and Cultivation of Cell Liquid:
(§8) The cell liquid (150 μl) prepared in (2) was added to the chemical dilution plate produced in (3), followed by aerobic static cultivation at 37° C.
(§9) (5) Determination of Antifungal Activity (GI80 Value):
(§10) After cultivation for […], the plate was stirred, and its absorbance (600 nm) was measured. Based on the absorbance as the index, the minimum chemical concentration for at least 80% cell growth inhibition relative to the cell growth in the chemical-free well was computed as a GI80 value.

C. albicans ATCC MYA-573 = details: minimum concentration for at least 80% cell growth inhibition, 37° C., absorbance 600 nm; for IC80: Candida albicans, read-out: GI80 (μg/ml) C. albicans ATCC MYA-573
Protocol: as §1, §2, §3, §4, §5, §6, §7, §8, §9, §10

C. albicans ATCC90028 = details: 37° C., absorbance 600 nm; for IC80: Candida albicans, ATCC90028, minimum concentration for at least 80% cell growth inhibition, read-out: GI80 (μg/ml) C. albicans ATCC90028; for GI80 (μg/ml) C. albicans ATCC90028: minimum concentration for at least 80% cell growth inhibition
Protocol: as §1, §2, §3, §4, §5, §6, §7, §8, §9, §10

Row | SMILES | IC80 (C. glabrata ATCC48435) [µg/mL] | IC80 (C. albicans ATCC MYA-573) [µg/mL] | IC80 (C. albicans ATCC90028) [µg/mL] | GI80 (μg/ml) C. glabrata ATCC48435 (C. glabrata ATCC48435) [µg/mL] | GI80 (μg/ml) C. albicans ATCC MYA-573 (C. albicans ATCC MYA-573) [µg/mL] | GI80 (μg/ml) C. albicans ATCC90028 (C. albicans ATCC90028) [µg/mL]
1 | Cc1c(-c2ccccc2)c(N2CC[C@H](N(C)C)C2)c2oc(C(=O)N(C)CC(=O)N(C)C)nc2c1C#N [Example 50, 4-Cyano-N-[2-(dimethylamino)-2-oxoethyl]-7-[(3S)-3-(dimethylamino)pyrrolidin-1-yl]-N,5-dimethyl-6-phenyl-1,3-benzoxazole-2-carboxamide] | 0.25 (≈ 0.512 µM) | 2 (≈ 4.09 µM) | 2 (≈ 4.09 µM) | – | – | –
2 | Cc1c(-c2ccccc2)c(N2CC[C@H](N(C)C)C2)c2oc(-c3nccs3)nc2c1C#N [Example 93, 7-[(3S)-3-(Dimethylamino)pyrrolidin-1-yl]-5-methyl-6-phenyl-2-(1,3-thiazol-2-yl)-1,3-benzoxazole-4-carbonitrile] | 0.032 (≈ 0.0745 µM) | 0.125 (≈ 0.291 µM) | 0.125 (≈ 0.291 µM) | – | – | –
3 | CN[C@H]1CCN(c2c(-c3csc(C)n3)c(C)c(C#N)c3nc(C(=O)N(C)C)oc23)C1 [Example 52] | – | – | – | 0.25 (≈ 0.589 µM) | 1 (≈ 2.36 µM) | 1 (≈ 2.36 µM)
4 | CN[C@H]1CCN(c2c(-c3cccc(C)c3)c(C)c(C#N)c3nc(C(=O)N(C)C)oc23)C1 [Example 146-2, 4-Cyano-N,N,5-trimethyl-7-[(3S)-3-(methylamino)pyrrolidin-1-yl]-6-(3-methylphenyl)-1,3-benzoxazole-2-carboxamide] | 0.063 (≈ 0.151 µM) | 0.25 (≈ 0.599 µM) | 0.125 (≈ 0.299 µM) | – | – | –
5 | Cc1c(-c2ccsc2)c(N2CC[C@H](N(C)C)C2)c2oc(C3CC3)nc2c1C#N [Example 144-1, 2-Cyclopropyl-7-[(3S)-3-(dimethylamino)pyrrolidin-1-yl]-5-methyl-6-(thiophen-3-yl)-1,3-benzoxazole-4-carbonitrile] | 0.032 (≈ 0.0815 µM) | 0.25 (≈ 0.637 µM) | 0.25 (≈ 0.637 µM) | – | – | –
6 | Cc1c(-c2cccc(F)c2F)c(N2CC[C@H](N(C)C)C2)c2oc(C3CC3)nc2c1C#N [Example 83, 2-Cyclopropyl-6-(2,3-difluorophenyl)-7-[(3S)-3-(dimethylamino)pyrrolidin-1-yl]-5-methyl-1,3-benzoxazole-4-carbonitrile] | 0.125 (≈ 0.296 µM) | 0.5 (≈ 1.18 µM) | 0.5 (≈ 1.18 µM) | – | – | –
7 | CCOC(=O)[C@@H]1C[C@H]1c1nc2c(C#N)c(C)c(-c3ccccc3)c(N3CC[C@H](N(C)C)C3)c2o1 (relative stereo) [Example 112, Ethyl (1R*,2R*)-2-{4-cyano-7-[(3S)-3-(dimethylamino)pyrrolidin-1-yl]-5-methyl-6-phenyl-1,3-benzoxazol-2-yl}cyclopropanecarboxylate] | 0.032 (≈ 0.0698 µM) | 0.063 (≈ 0.137 µM) | 0.032 (≈ 0.0698 µM) | – | – | –
8 | Cc1c(-c2ccccc2)c(N2CC[C@H](N(C)C)C2)c2oc(N(C)C)nc2c1C#N [Example 56, 2-(Dimethylamino)-7-[(3S)-3-(dimethylamino)pyrrolidin-1-yl]-5-methyl-6-phenyl-1,3-benzoxazole-4-carbonitrile] | 0.063 (≈ 0.162 µM) | 0.5 (≈ 1.28 µM) | 0.125 (≈ 0.321 µM) | – | – | –
9 | OC(Cn1cncn1)(Cn1cncn1)c1ccc(F)cc1F [FCZ, Fluconazole, reference compound] | > 4 | > 4 | 0.25 (≈ 0.816 µM) | – | – | –
10 | CC(=O)NC1CN(c2nc3c(C#N)c(C)c(-c4ccccc4)c(N4CC[C@H](N(C)C)C4)c3o2)C1 [Example 126] | – | – | – | 0.125 (≈ 0.273 µM) | 0.5 (≈ 1.09 µM) | 0.5 (≈ 1.09 µM)
11 | Cc1c(-c2cc(F)ccc2F)c(N2CC[C@H](N(C)C)C2)c2oc(C3CC3)nc2c1C#N [Example 144-5, 2-Cyclopropyl-6-(2,5-difluorophenyl)-7-[(3S)-3-(dimethylamino)pyrrolidin-1-yl]-5-methyl-1,3-benzoxazole-4-carbonitrile] | 0.032 (≈ 0.0757 µM) | 0.25 (≈ 0.592 µM) | 0.125 (≈ 0.296 µM) | – | – | –
12 | Cc1c(-c2ccccc2)c(N2CC[C@H](N(C)C)C2)c2oc(C(=O)N(C)CCO)nc2c1C#N [Example 49, 4-Cyano-7-[(3S)-3-(dimethylamino)pyrrolidin-1-yl]N-(2-hydroxyethyl)-N,5-dimethyl-6-phenyl-1,3-benzoxazole-2-carboxamide] | 0.063 (≈ 0.141 µM) | 0.5 (≈ 1.12 µM) | 0.5 (≈ 1.12 µM) | – | – | –
13 | CC(=O)N(C)c1nc2c(C#N)c(C)c(-c3ccccc3)c(N3CC[C@H](N(C)C)C3)c2o1 [Example 54, N-{4-Cyano-7-[(3S)-3-(dimethylamino)pyrrolidin-1-yl]-5-methyl-6-phenyl-1,3-benzoxazol-2-yl}-N-methylacetamide] | 0.063 (≈ 0.151 µM) | 0.25 (≈ 0.599 µM) | 0.125 (≈ 0.299 µM) | – | – | –
